Assay results published in ChEMBL document CHEMBL1124199, “Thienylpyrazoloquinolines: potent agonists and inverse agonists to benzodiazepine receptors” (J Med Chem, 1988).
Calls of active or inactive are those of the source. The rule behind the calls is not given here.

Key:
[1] = target: GABA-A receptor; anion channel; experiment: Binding affinity against benzodiazepine (BZ) receptor by displacing [3H]diazepam in cerebral cortex of Wistar rats; assay type: tissue-based, Rattus norvegicus
Mus musculus [2] = experiment: Inverse agonist activity of orally administered compound against a subcutaneous dose of 75 mg/kg of PTZ-induced convulsions in mice; assay type: functional; settings: route oral
Mus musculus [3] = experiment: Inverse agonist activity of orally administered compound against a subcutaneous dose of 90 mg/kg of PTZ-induced convulsions in mice; assay type: functional; settings: route oral
Mus musculus [4] = experiment: Agonist activity was evaluated by the inhibition of the pentylenetetrazole (PTZ) induced convulsions after peroral administration; assay type: functional; settings: po
Mus musculus [5] = experiment: Agonist activity was evaluated by the inhibition of the pentylenetetrazole (PTZ) induced convulsions after peroral administration; Inactive up to 50 mg/kg; assay type: functional, organism-based; parameters: dose 50 mg/kg
Mus musculus [6] = experiment: Inverse agonist activity of orally administered compound against a subcutaneous dose of 90 mg/kg of PTZ-induced convulsions in mice expressed as percent of mice affected; assay type: functional; settings: route oral
Mus musculus [7] = experiment: Inverse agonist activity of orally administered compound against a subcutaneous dose of 75 mg/kg of PTZ-induced convulsions in mice; inactive up to 50 mg/kg; assay type: functional, organism-based
Mus musculus [8] = experiment: Inverse agonist activity of orally administered compound against a subcutaneous dose of 90 mg/kg of PTZ-induced convulsions in mice; Inactive up to 50 mg/kg; assay type: functional, organism-based
Mus musculus [9] = experiment: Inverse agonist activity of orally administered compound against a subcutaneous dose of 90 mg/kg of PTZ-induced convulsions in mice; Inactive; assay type: functional, organism-based; parameters: dose 90 mg/kg
Mus musculus [10] = experiment: Inverse agonist activity of orally administered compound against a subcutaneous dose of 50 mg/kg of PTZ-induced convulsions in mice; assay type: functional; settings: route oral
Mus musculus [11] = experiment: Inverse agonist activity of orally administered compound against a subcutaneous dose of 90 mg/kg of PTZ-induced convulsions in mice; inactive; assay type: functional, organism-based; parameters: dose 90 mg/kg
Mus musculus [12] = experiment: Agonist activity was evaluated by the inhibition of the pentylenetetrazole (PTZ) induced convulsions after peroral administration at 50 mg/kg; assay type: functional; settings: route oral
Mus musculus [13] = experiment: Inverse agonist activity of orally administered compound against a subcutaneous dose of 90 mg/kg of PTZ-induced convulsions in mice; inactive up to 50 mg/kg; assay type: functional, organism-based
Mus musculus [14] = experiment: Inverse agonist activity of orally administered compound against a subcutaneous dose of 50 mg/kg of PTZ-induced convulsions in mice; expressed as percent of mice affected; assay type: functional; settings: route oral
Mus musculus [15] = experiment: Inverse agonist activity of orally administered compound against a subcutaneous dose of 75 mg/kg of PTZ-induced convulsions in mice; Inactive up to 50 mg/kg; assay type: functional, organism-based

| Structure (SMILES) | Ki [1] [nM] | ED50 (Mus musculus [3]) [mg/kg] | ED50 (Mus musculus [5]) | further results |
| --- | --- | --- | --- | --- |
| O=c1c2cnc3ccccc3c2[nH]n1-c1ccsc1 | 0.73 | 2.49 | – | ED50 (Mus musculus [2]): 7.62 mg/kg |
| Cc1ccc(-n2[nH]c3c(cnc4c(F)cccc43)c2=O)s1 | 0.92 | – | – | ED50 (Mus musculus [4]): 30.4 mg/kg |
| O=C1C2C=Nc3ccccc3C2=NN1c1ccc(Cl)cc1 (centres undefined) [CGS-9896] | 0.83 | – | – | ED50 (Mus musculus [4]): 1.17 mg/kg |
| Cc1csc(-n2[nH]c3c(cnc4ccccc43)c2=O)c1 | 0.48 | – | inactive | Affected animals (Mus musculus [6]): 62.5%; ED50 (Mus musculus [7]): inactive |
| CCOC(=O)c1cc(C)sc1-n1[nH]c2c(cnc3ccccc32)c1=O | 9.84 | – | inactive | ED50 (Mus musculus [8]): inactive |
| Cc1ccc2c(c1)ncc1c(=O)n(-c3ccc(C)s3)[nH]c12 | 2.34 | – | inactive | ED50 (Mus musculus [9]): inactive |
| CCc1cc(-n2[nH]c3c(cnc4ccccc43)c2=O)cs1 | 0.41 | 10.3 | – | ED50 (Mus musculus [7]): inactive |
| Cc1cc(-n2[nH]c3c(cnc4ccccc43)c2=O)sc1C | 0.73 | – | – | ED50 (Mus musculus [4]): 30.6 mg/kg |
| CCn1cc2c(=O)n(-c3csc(C)c3)nc-2c2ccccc21 | 436 | 5.24 | – | ED50 (Mus musculus [2]): 13.3 mg/kg |
| Cc1cc(-n2[nH]c3c(cnc4ccccc43)c2=O)cs1 | – | 0.92 | – | – |
| O=c1c2cnc3ccccc3c2[nH]n1-c1cccs1 | 0.41 | 9.54 | inactive | Animals affected (Mus musculus [10]): 50% |
| Cc1cc(-n2[nH]c3c(cnc4c(C)cccc43)c2=O)cs1 | 0.38 | 5.24 | – | ED50 (Mus musculus [2]): 12.9 mg/kg |
| Cc1ccc(-n2[nH]c3c(cnc4cc(Cl)ccc43)c2=O)s1 | 1.05 | – | inactive | ED50 (Mus musculus [8]): inactive |
| Cc1cc(-n2nc3c4ccccc4n(C)cc-3c2=O)cs1 | 215 | 1.48 | – | ED50 (Mus musculus [2]): 2.94 mg/kg |
| Cc1cc(-n2[nH]c3c(cnc4ccccc43)c2=O)c(Cl)s1 | 4.69 | – | inactive | ED50 (Mus musculus [7]): inactive; ED50 (Mus musculus [9]): inactive |
| CN1C(=O)CN=C(c2ccccc2)c2cc(Cl)ccc21 [DIAZEPAM] | – | – | – | ED50 (Mus musculus [4]): 0.67 mg/kg |
| Cc1cscc1-n1[nH]c2c(cnc3ccccc32)c1=O | 6.86 | 22.3 | – | ED50 (Mus musculus [2]): 84.4 mg/kg |
| Cc1ccc(-n2[nH]c3c(cnc4c(C)cccc43)c2=O)s1 | 0.83 | – | – | ED50 (Mus musculus [4]): 25 mg/kg; ED50 (Mus musculus [8]): inactive |

| Structure (SMILES) | Ki [1] [nM] | ED50 (Mus musculus [3]) [mg/kg] | ED50 (Mus musculus [5]) | further results |
| --- | --- | --- | --- | --- |
| Cc1cc(C(=O)O)c(-n2[nH]c3c(cnc4ccccc43)c2=O)s1 | 21.6 | – | inactive | ED50 (Mus musculus [8]): inactive |
| O=C(O)c1sccc1-n1[nH]c2c(cnc3ccccc32)c1=O | 17.8 | – | inactive | ED50 (Mus musculus [7]): inactive; ED50 (Mus musculus [9]): inactive |
| COC(=O)c1sccc1-n1[nH]c2c(cnc3ccccc32)c1=O | 142 | – | inactive | ED50 (Mus musculus [7]): inactive; ED50 (Mus musculus [11]): inactive |
| Cc1cc(-n2[nH]c3c(cnc4c(F)cccc43)c2=O)cs1 | 0.37 | 1.32 | – | ED50 (Mus musculus [2]): 2.58 mg/kg |
| Cc1ccc(-n2[nH]c3c(cnc4c(Cl)cccc43)c2=O)s1 | 0.75 | – | – | ED50 (Mus musculus [8]): inactive; Animals affected (Mus musculus [12]): 25% |
| Cc1ccc(-n2nc3c4ccccc4n(C)cc-3c2=O)s1 | 1020 | – | – | ED50 (Mus musculus [4]): 13.4 mg/kg |
| CCc1ccc(-n2[nH]c3c(cnc4ccccc43)c2=O)s1 | 1.02 | – | – | ED50 (Mus musculus [4]): 14.3 mg/kg |
| Cc1cc(-n2[nH]c3c(cnc4ccccc43)c2=O)c(Br)s1 | 27.2 | – | inactive | ED50 (Mus musculus [13]): inactive; ED50 (Mus musculus [7]): inactive |
| O=c1c2cnc3ccccc3c2[nH]n1-c1ccc(Cl)s1 | 2.48 | – | inactive | Affected animals (Mus musculus [6]): 25% |
| Cc1ccc2c(c1)ncc1c(=O)n(-c3csc(C)c3)[nH]c12 | 0.96 | – | inactive | ED50 (Mus musculus [9]): inactive |
| Cc1cc(-n2[nH]c3c(cnc4cc(F)ccc43)c2=O)cs1 | 0.64 | 6.15 | – | Affected animals (Mus musculus [14]): 37.7% |
| Cc1ccc(-n2[nH]c3c(cnc4cc(F)ccc43)c2=O)s1 | 0.65 | – | – | ED50 (Mus musculus [4]): 16.3 mg/kg |
| O=c1c2cnc3ccccc3c2[nH]n1-c1csc(Cl)c1 | 0.73 | 11.5 | – | ED50 (Mus musculus [2]): 23.2 mg/kg |
| Cc1cc(-n2[nH]c3c(cnc4cc(Cl)ccc43)c2=O)cs1 | 0.78 | – | inactive | ED50 (Mus musculus [13]): inactive; ED50 (Mus musculus [7]): inactive |
| O=C1C2C=Nc3ccccc3C2=NN1c1ccccc1 (centres undefined) | – | – | – | ED50 (Mus musculus [15]): inactive |
| Cc1cc(-n2[nH]c3c(cnc4c(Cl)cccc43)c2=O)cs1 | 0.63 | 7.7 | – | ED50 (Mus musculus [2]): 13.5 mg/kg |
| CCCCc1ccc(-n2[nH]c3c(cnc4ccccc43)c2=O)s1 | 1.48 | – | – | ED50 (Mus musculus [4]): 12.5 mg/kg |
